According to patent publication US6054435A, “6-O-substituted macrolides having antibacterial activity” (priority 1999, dated 2000):
Values after ≈ are worked out from the molar mass of the structure shown.

Assays:
Assay in all cases: in vitro antibacterial activity (MIC), agar dilution
Assay type in all cases: cell-based
[1] = tested on: Haemophilis Influenzae DILL AMP R; conditions: organism code WW; BHI agar, 35-37° C., 20 to 24 hours; unit assumed
Summary of the method: (§1)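 Test compound serially diluted in Brain Heart Infusion agar across twelve plates; inocula of 1:100 dilution (1:10 for slow growers such as Streptococcus) applied by Steers replicator. MIC taken visually as lowest concentration giving no growth, slight haze or sparse isolated colonies versus drug-free growth control.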

[2] = tested on: Streptococcus Pneumonia 5649; conditions: organism code ZZA; BHI agar, 35-37° C., 20 to 24 hours; unit assumed
Summary of the method: as §1

[3] = tested on: Streptococcus agalactiae CMX 508; conditions: organism code KK; BHI agar, 35-37° C., 20 to 24 hours; unit assumed
Summary of the method: as §1

Escherichia coli DC-2 = conditions: organism code SS; BHI agar, 35-37° C., 20 to 24 hours; unit assumed
Summary of the method: as §1

Candida albicans CCH 442 = conditions: organism code TT; BHI agar, 35-37° C., 20 to 24 hours; unit assumed
Summary of the method: as §1

[4] = tested on: Staphylococcus epidermidis 3519; conditions: organism code HH; BHI agar, 35-37° C., 20 to 24 hours; unit assumed
Summary of the method: as §1

[5] = tested on: Enterococcus faecium ATCC 8043; conditions: organism code II; BHI agar, 35-37° C., 20 to 24 hours; unit assumed
Summary of the method: as §1

[6] = tested on: Streptococcus Pneumonia GYR 1171; conditions: organism code YY; BHI agar, 35-37° C., 20 to 24 hours; unit assumed
Summary of the method: as §1

[7] = tested on: Staphylococcus aureus ATCC 6538P; conditions: organism code AA; BHI agar, 35-37° C., 20 to 24 hours; unit assumed
Summary of the method: as §1

Escherichia coli JUHL = conditions: organism code QQ; BHI agar, 35-37° C., 20 to 24 hours; unit assumed
Summary of the method: as §1

[8] = tested on: Streptococcus Pneumonia 5979; conditions: organism code ZZ; BHI agar, 35-37° C., 20 to 24 hours; unit assumed
Summary of the method: as §1

[9] = tested on: Staphylococcus aureus NCTC10649M; conditions: organism code EE; BHI agar, 35-37° C., 20 to 24 hours; unit assumed
Summary of the method: as §1

[10] = tested on: Streptococcus pyogenes PIU 2548; conditions: organism code NN; BHI agar, 35-37° C., 20 to 24 hours; unit assumed
Summary of the method: as §1

[11] = tested on: Streptococcus pyogenes 930; conditions: organism code MM; BHI agar, 35-37° C., 20 to 24 hours; unit assumed
Summary of the method: as §1

[12] = tested on: Micrococcus luteus ATCC 4698; conditions: organism code PP; BHI agar, 35-37° C., 20 to 24 hours; unit assumed
Summary of the method: as §1

[13] = tested on: Staphylococcus aureus CMX 642A; conditions: organism code DD; BHI agar, 35-37° C., 20 to 24 hours; unit assumed
Summary of the method: as §1

[14] = tested on: Staphylococcus aureus 1775; conditions: organism code GG; BHI agar, 35-37° C., 20 to 24 hours; unit assumed
Summary of the method: as §1

[15] = tested on: Staphylococcus aureus CMX 553; conditions: organism code FF; BHI agar, 35-37° C., 20 to 24 hours; unit assumed
Summary of the method: as §1

[16] = tested on: Micrococcus luteus ATCC 9341; conditions: organism code OO; BHI agar, 35-37° C., 20 to 24 hours; unit assumed
Summary of the method: as §1

[17] = tested on: Streptococcus Pneumonia ATCC6303; conditions: organism code XX; BHI agar, 35-37° C., 20 to 24 hours; unit assumed
Summary of the method: as §1

[18] = tested on: Mycobacterium smegmatis ATCC 114; conditions: organism code UU; BHI agar, 35-37° C., 20 to 24 hours; unit assumed
Summary of the method: as §1

[19] = tested on: Staphylococcus aureus A5177; conditions: organism code BB; BHI agar, 35-37° C., 20 to 24 hours; unit assumed
Summary of the method: as §1

[20] = tested on: Staphylococcus aureus A-5278; conditions: organism code CC; BHI agar, 35-37° C., 20 to 24 hours; unit assumed
Summary of the method: as §1

Escherichia coli SS = conditions: organism code RR; BHI agar, 35-37° C., 20 to 24 hours; unit assumed
Summary of the method: as §1

[21] = tested on: Nocardia Asteroides ATCC9970; conditions: organism code VV; BHI agar, 35-37° C., 20 to 24 hours; unit assumed
Summary of the method: as §1

[22] = tested on: Streptococcus bovis A-5169; conditions: organism code JJ; BHI agar, 35-37° C., 20 to 24 hours; unit assumed
Summary of the method: as §1

[23] = tested on: Streptococcus pyogenes EES61; conditions: organism code LL; BHI agar, 35-37° C., 20 to 24 hours; unit assumed
Summary of the method: as §1

| Compound | MIC [1] [µg/mL] | MIC [2] [µg/mL] | MIC [3] [µg/mL] | MIC (Escherichia coli DC-2) [µg/mL] | MIC (Candida albicans CCH 442) [µg/mL] | MIC [4] [µg/mL] | MIC [5] [µg/mL] | MIC [6] [µg/mL] | MIC [7] [µg/mL] | MIC (Escherichia coli JUHL) [µg/mL] | MIC [8] [µg/mL] | MIC [9] [µg/mL] | MIC [10] [µg/mL] | MIC [11] [µg/mL] | MIC [12] [µg/mL] | MIC [13] [µg/mL] | MIC [14] [µg/mL] | MIC [15] [µg/mL] | MIC [16] [µg/mL] | MIC [17] [µg/mL] | also measured |
| --- | --- | --- | --- | --- | --- | --- | --- | --- | --- | --- | --- | --- | --- | --- | --- | --- | --- | --- | --- | --- | --- |
| CC[C@H]1OC(=O)[C@H](C)C(=O)[C@H](C)[C@@H](O[C@@H]2O[C@H](C)C[C@H](N(C)C)[C@H]2O)[C@](C)(OC/C=C/c2cncc(Br)c2)C[C@@H](C)C(=O)[C@H](C)[C@H]2NC(=O)O[C@@]21C [Example 40] | 4 (≈ 5.03 µM) | 0.25 (≈ 0.315 µM) | 0.02 (≈ 0.0252 µM) | 50 (≈ 62.9 µM) | > 100 | 0.2 (≈ 0.252 µM) | 0.05 (≈ 0.0629 µM) | 0.015 (≈ 0.0189 µM) | 0.1 (≈ 0.126 µM) | 100 (≈ 126 µM) | > 128 | 0.2 (≈ 0.252 µM) | 0.1 (≈ 0.126 µM) | 50 (≈ 62.9 µM) | 0.2 (≈ 0.252 µM) | 0.2 (≈ 0.252 µM) | > 100 | 0.2 (≈ 0.252 µM) | 0.02 (≈ 0.0252 µM) | 0.015 (≈ 0.0189 µM) | MIC [18]: 0.39 µg/mL (≈ 0.491 µM); MIC [19]: 0.2 µg/mL (≈ 0.252 µM); MIC [20]: > 100 µg/mL; MIC (Escherichia coli SS): 0.39 µg/mL (≈ 0.491 µM); MIC [21]: 0.1 µg/mL (≈ 0.126 µM); MIC [22]: 0.02 µg/mL (≈ 0.0252 µM); MIC [23]: 0.02 µg/mL (≈ 0.0252 µM) |
| CC[C@H]1OC(=O)[C@H](C)C(=O)[C@H](C)[C@@H](O[C@@H]2O[C@H](C)C[C@H](N(C)C)[C@H]2O)[C@](C)(OC/C=C/c2nc(-c3cccnc3)cs2)C[C@@H](C)C(=O)[C@H](C)[C@H]2NC(=O)O[C@@]21C [Example 65] | 2 (≈ 2.5 µM) | 0.25 (≈ 0.313 µM) | 0.01 (≈ 0.0125 µM) | 25 (≈ 31.3 µM) | > 100 | 0.1 (≈ 0.125 µM) | 0.02 (≈ 0.025 µM) | ≤ 0.004 | 0.1 (≈ 0.125 µM) | 100 (≈ 125 µM) | > 128 | 0.1 (≈ 0.125 µM) | 0.1 (≈ 0.125 µM) | 50 (≈ 62.6 µM) | 0.1 (≈ 0.125 µM) | 0.1 (≈ 0.125 µM) | > 100 | 0.1 (≈ 0.125 µM) | 0.02 (≈ 0.025 µM) | 0.008 (≈ 0.01 µM) | MIC [18]: 0.78 µg/mL (≈ 0.976 µM); MIC [19]: 0.1 µg/mL (≈ 0.125 µM); MIC [20]: > 100 µg/mL; MIC (Escherichia coli SS): 0.2 µg/mL (≈ 0.25 µM); MIC [21]: 0.02 µg/mL (≈ 0.025 µM); MIC [22]: ≤ 0.005 µg/mL; MIC [23]: 0.01 µg/mL (≈ 0.0125 µM) |
| CC[C@H]1OC(=O)[C@H](C)C(=O)[C@H](C)[C@@H](O[C@@H]2O[C@H](C)C[C@H](N(C)C)[C@H]2O)[C@](C)(OCC#Cc2ccc(-c3cnc4ccccc4n3)s2)C[C@@H](C)C(=O)[C@H](C)[C@H]2NC(=O)O[C@@]21C [Example 33] | 4 (≈ 4.72 µM) | 0.25 (≈ 0.295 µM) | 0.01 (≈ 0.0118 µM) | > 100 | > 100 | 0.2 (≈ 0.236 µM) | 0.05 (≈ 0.059 µM) | 0.03 (≈ 0.0354 µM) | 0.2 (≈ 0.236 µM) | > 100 | 0.25 (≈ 0.295 µM) | 0.39 (≈ 0.46 µM) | 0.2 (≈ 0.236 µM) | 0.39 (≈ 0.46 µM) | 0.05 (≈ 0.059 µM) | 0.2 (≈ 0.236 µM) | 50 (≈ 59 µM) | 0.2 (≈ 0.236 µM) | 0.05 (≈ 0.059 µM) | 0.03 (≈ 0.0354 µM) | MIC [18]: 0.2 µg/mL (≈ 0.236 µM); MIC [19]: 0.2 µg/mL (≈ 0.236 µM); MIC [20]: 25 µg/mL (≈ 29.5 µM); MIC (Escherichia coli SS): 0.78 µg/mL (≈ 0.921 µM); MIC [21]: 0.1 µg/mL (≈ 0.118 µM); MIC [22]: 0.01 µg/mL (≈ 0.0118 µM); MIC [23]: 0.02 µg/mL (≈ 0.0236 µM) |
| CC[C@H]1OC(=O)[C@H](C)C(=O)[C@H](C)[C@@H](O[C@@H]2O[C@H](C)C[C@H](N(C)C)[C@H]2O)[C@](C)(OC/C=C/c2ccc(-c3ccsc3)s2)C[C@@H](C)C(=O)[C@H](C)[C@H]2NC(=O)O[C@@]21C [Example 76] | 8 (≈ 9.96 µM) | 0.125 (≈ 0.156 µM) | 0.01 (≈ 0.0125 µM) | 100 (≈ 125 µM) | > 100 | 0.1 (≈ 0.125 µM) | 0.02 (≈ 0.0249 µM) | ≤ 0.004 | 0.1 (≈ 0.125 µM) | 100 (≈ 125 µM) | 16 (≈ 19.9 µM) | 0.05 (≈ 0.0623 µM) | 0.1 (≈ 0.125 µM) | 3.1 (≈ 3.86 µM) | 0.2 (≈ 0.249 µM) | 0.1 (≈ 0.125 µM) | 100 (≈ 125 µM) | 0.1 (≈ 0.125 µM) | 0.05 (≈ 0.0623 µM) | ≤ 0.004 | MIC [18]: 0.78 µg/mL (≈ 0.971 µM); MIC [19]: 0.1 µg/mL (≈ 0.125 µM); MIC [20]: 100 µg/mL (≈ 125 µM); MIC (Escherichia coli SS): 0.2 µg/mL (≈ 0.249 µM); MIC [21]: 0.1 µg/mL (≈ 0.125 µM); MIC [22]: ≤ 0.005 µg/mL; MIC [23]: 0.01 µg/mL (≈ 0.0125 µM) |
